Assay results from patent US10085998B2, “Salts of potassium ATP channel openers and uses thereof” (Essentialis, Inc., priority 2006, dated 2018).
≈ marks a conversion by molar mass, not a printed value.

Legend:
[1] = Slurry studies (inter-conversion of the solid form); conditions: room temperature, no light, water, isopropyl alcohol, dichloromethane and toluene, 14 days
Method: Slurry experiments were performed on each form to determine propensity for conversion and to see if a unique form could be generated.

[2] = Moisture sorption analysis; type: physicochemical; conditions: for Hysteresis upon desorption / hydrate formation: desorption scan
Method: Moisture Sorption Analysis was performed with a Hiden IGAsorp Moisture Sorption Instrument. Samples were first dried at 0% relative humidity at 25° C. until an equilibrium weight was reached, or for a maximum of 4 hours. Samples were then subjected to an isothermal (25° C.) scan from 10-90% relative humidity in steps of 10%. The samples were allowed to equilibrate to an asymptotic weight at each point for a maximum of 4 hours. Following absorption, a desorption scan from 85% relative humidity (at 25° C.) was run in steps of −10%, again allowing a maximum of 4 hours for the samples to equilibrate. The resulting samples after desorption were dried at 80° C. for two hours and analyzed by XRPD.

[3] = Form conversion and degradation under thermal stress; conditions: 60° C., closed, protected from light, 7 and 14 days
Method: Studies were also conducted to evaluate the likelihood for conversion and degradation under thermal stress.

[4] = Additional solubility studies in 100 mM phosphate buffer (HPLC); type: physicochemical; conditions: pH 7.3, aqueous buffer, thermodynamic from solid, pH 7.30, pH after 18 h slurry 7.31, ambient temperature
Method: Each determination was carried out in duplicate, slurrying each sample in a 100 mM phosphate buffer solution, pH 7.00. […] After this time all samples were centrifuged, and the supernatant was diluted with mobile phase (MeCN/Water.).

With `CC1=NS(=O)(=O)c2cc(Cl)ccc2N1` [free form diazoxide, 7-chloro-3-methyl-2H-1,2,4-benzothiadiazine 1, 1 dioxide, reference compound] the “Slurry study: conversion of solid form” value [1] was “did not convert to alternate crystal forms”, the “Hysteresis upon desorption / hydrate formation” value ([2]; 25° C.) was “does not form a stable hydrate” and the “Hysteresis upon desorption / hydrate formation” value ([2]; 25° C., listed as Free form) was “no hysteresis”. For the same molecule, the “Moisture sorption: hygroscopicity” value ([2]; 25° C., relative humidity scan) was “non-hygroscopic”, the “Water absorbed at 60% RH” value ([2]; 25° C., 60% RH) was “approximately 0.04 wt %” and the “Water absorbed at 90% RH” value ([2]; 25° C., 90% RH) was roughly 0.20 wt %. For the same molecule, the “XRPD pattern following the moisture sorption/desorption analysis” value ([2]; after moisture sorption experiment) was “same crystalline form”, the “Form conversion and degradation under thermal stress (XRPD, DSC)” value [3] was “no conversion or degradation” and the solubility at 18 h [4] was 70 µg/mL (≈ 303 µM).
